Assay [1] deals with EstSP1. Kind of assay: p-nitrophenol release at […] nm, Lineweaver-Burk. In kind it is biochemical, Sphingomonas sp. PAMC 26605. The note with it: 40 °C; 0.1-0.5 mM substrate; 3 min; Table 3 and text print 92.5.
Assay [2] deals with EstSP1. The note with it: 40 °C; 0.1-0.5 mM substrate; 3 min; text prints 247.

The values below come from publication PMC6645578 (ACS Omega, 2017).

One may read the Km as the concentration of substrate that gives half-maximal velocity.

Read-outs that look alike come from different tables or passages of the source.

For the molecule `CCCC(=O)Oc1ccc([N+](=O)[O-])cc1` [p-nitrophenyl butyrate], the Km in the assay on EstSP1 [1] is 92 ± 1.2 µM; with EstSP1 [2], 249 ± 7.8 µM.
